Measured values reported in US6740505B1, “Production of proteins” (SmithKline Beecham Corporation, priority 1998, dated 2004).

Tests used:
[1] = test system: recombinant murine NS0 cells transfected with a IgG1 humanised anti-CD23 antibody; test: Viable cell count (Erythrosin B exclusion, haemocytometer) in repeated batch NS0 cell culture; assay type: cell-based; details: 0.075 mM butyrate
Method: (§1) Five Erlenmeyer flasks were inoculated with recombinant murine NS0 cells transfected with a IgG1 humanised anti-CD23 antibody (produced according to the method of Bebbington et al, as supra) in a cholesterol containing protein free/glutamine free medium at 0.2×10^6 cells/ml. Sodium butyrate (0.5M) in PBS was added to the flasks at the following concentrations: 0 mM; 0.025 mM; 0.05 mM; 0.075 mM and 0.10 mM and were incubated at […] and 100 rpm in a shake incubator for 4 days. Subsequently, the flasks were subcultured every four days to a start count of […], maintaining sodium butyrate concentrations as above in each flask. The flasks were sampled and assayed before each subculture. The culture was continued in this ‘draw-fill’/‘repeated batch’ manner for 56 days, maintaining sodium butyrate concentrations at the concentrations indicated throughout. Viable cells were counted for each sample taken as outlined below. Antibody titre for each sample taken was determined as outlined below.
Culture was diluted as necessary in culture medium. It was examined microscopically in a haemocytometer (Neubauer counting chamber) using Erythrosin B (Sigma) 0.04% w/v in PBS, pH 7 as an exclusion dye. The number of viable and non-viable cells per milliliter and the percentage viability of the culture was calculated.

[2] = test system: recombinant murine NS0 cells transfected with a IgG1 humanised anti-CD23 antibody; test: Antibody titre (Human IgG by nephelometric method) in repeated batch NS0 cell culture; assay type: cell-based; details: 56 day culture
Method: as §1
The quantity of Human IgG was determined by a Nephelometric method (Tanford, C. (1961) Light Scattering. Physical Chemistry of Macromolecules. New York:Wiley, 275-316; Whicher J. T et al (1978), “An evaulation of Hyland laser nephelometer PDQ system for the measurement of immunoglobulins”; Ann.Clin.Biochem. 15, p77-85), whereby the formation of insoluble immune-precipitin of Human IgG with highly specific antibody to Human IgG was measured. The Nephelometer measured the intensity of the light scattered by the insoluble immune-precipitin in reaction solution. The change in intensity of the scattered light signal is proportional to the concentration of Human IgG in tested sample. The quantity of Human IgG in the sample is measured from a standard curve constructed from known concentration of purified Human IgG versus the rate of light scatter signal.

CCCC(=O)[O-].[Na+] [Butyrate, sodium butyrate]
decrease in viable cell count compared to control ([1]; by 56 day): narrowed considerably | viable cell count compared to control ([1]; early stages of the culturing process): slight decrease in viable cell count | antibody titre over control ([2]; 0.075 mM butyrate maintained in medium): marked increase in antibody titre over control | antibody titre over control ([2]; 0.075 mM butyrate maintained in medium, listed as butyrate): marked increase over control | consistency of protein production during the culturing process ([2]; 0.075 mM butyrate): more consistent production | antibody titre over control ([2]; 0.1 mM butyrate maintained in medium): marked increase in antibody titre over control | consistency of protein production during the culturing process ([2]; 0.1 mM butyrate): erratic protein production
